Test results taken from article PMC12002301, “Discovery and functional characterization of a bombesin-type neuropeptide signaling system in an invertebrate” (Proceedings of the National Academy of Sciences of the …, 2025).

Test system: ArBNR3
Test: Luminescence (GFP-aequorin Ca2+) assay, CHO-K1 cells coexpressing ArBNR3 and Gqs5
Assay type: cell-based, Asterias rubens
Settings: ArBNR3, words; up to 10^-5 M
Description: Having investigated relationships of eleven A. rubens BN-type receptor candidates (ArBNR1-11) with BN-type, ET-type, and CCHa/EP-type receptors in other taxa, ArBNR1 was identified as the best candidate and therefore this was selected for experimental testing. However, two other receptors (ArBNR2 and ArBNR3) were also tested. The methods employed for functional characterization of A. rubens neuropeptide receptors have been described previously ([57]) and a description of the methods employed in this study is included in SI Appendix, SI Methods. […]
Functional characterization of A. rubens BN-type receptors
Two cDNAs encoding ArBNR1 and ArBNR3 were cloned from A. rubens radial nerve cord cDNA using Q5 polymerase (NEB, Cat. no. M0491S) and PCR with specific primers (SI Appendix, Table S5). To facilitate expression of the cloned receptors, the forward primers were designed to contain a partial Kozak consensus sequence (ACC) before the ATG start codon. Then, PCR products were inserted into the mammalian expression vector pcDNA 3.1(+) (Invitrogen, Cat. no.
V79020) that had been cut in advance with the restriction enzyme EcoRV (NEB, Cat. no. […] Successful ligation and the direction of the insert was determined by restriction enzyme digestion and sequencing (TubeSeq service; Eurofins Genomics). […]
identical to residues 18 - 270 of the protein XP_033631283.1, which was determined from genome […]

Substance	peptide-induced luminescence
EPMPSSLALYIANLSP-NH2 [ArBNP65-81, C-terminally amidated 16-residue peptide predicted to be derived from residues 65 to 81 of ArBNP]	did not trigger luminescence
NYNRVFGPTY-NH2 [ArBN5-14, C-terminally amidated 10-residue peptide corresponding to the C-terminal region of ArBN]	did not trigger luminescence
